Calls of active or inactive are those of the source.
Columns and labels:
Galanin receptor type 2 = Galanin receptor type 2 (Homo sapiens, UniProt O43603); assay: Dose Response cell-based high-throughput screening assay to identify antagonists of galanin receptor 2 (GALR2). [Related pubchem assays: 828, 866 ]; type: functional
[1] = Luminescence Cell-Based Dose Response HTS to Identify Activators of Luciferase Translation or Activity in H4 […] Cells. [Related pubchem assays: 1829 (Project Summary), 1814 (Primary HTS)]; type: functional
H4 = assay: Luminescence Cell-Based Dose Response HTS to Identify Activators of 5'UTR Stem-Loop Driven Prion Protein mRNA Translation in H4 Neuroglioblastoma Cells. [Related pubchem assays: 1829 (Project Summary), 1814 (Primary HTS)]; type: functional; settings: Homo sapiens
[2] = Luminescence Cell-Based Dose Confirmation HTS to Identify Activators of 5'UTR Stem-Loop Driven Alpha-Synuclein mRNA Translation in H4 Neuroglioblastoma Cells. [Related pubchem assays: 1829 (Project Summary), 1814 (Primary HTS)]; type: functional
[3] = viability of HCT116 lacking mutant beta-catenin – cell-based, human colon tumor, dose response (AID 1045); type: functional;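 note: HCT116 colon tumor cells with beta catenin knocked out; cells exposed to compound for 60 hours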
[4] = viability of PTEN-deleted HCT116 cells – cell-based, HCT116 PTEN knockout, dose response (AID 1047); type: functional;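 note: HCT116 colon tumor cells with PTEN knocked out; cells exposed to compound for 60 hours before readout; potency for loss of cell viability measured by luminescence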
[5] = DRD fibroblast viability loss – cell-based, non-viral oncogenic, luminescence, dose response (AID 1934); type: functional; settings: Homo sapiens
BJ [6] = assay: BJ-TERT-LT-ST fibroblast viability loss – cell-based, RAS-independent, luminescence, dose response (AID 1935); type: functional; settings: Homo sapiens;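 note: BJ fibroblasts immortalized with TERT plus LT and ST oncogenes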
BJ [7] = assay: BJ-TERT fibroblast viability loss – cell-based, RAS-independent, luminescence, dose response (AID 1933); type: functional; settings: Homo sapiens
BJ [8] = assay: cells; type: functional, cell-based; settings: Homo sapiens
[9] = Luminescence Cell-Based Dose Confirmation HTS to Identify Inhibitors of Polyadenylation.; type: functional
INS1 = assay: INS-1E survival protection against cytokine death – cell-based, luminescence, retest, dose response (AID 449756); type: functional; settings: Rattus norvegicus;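 note: cell death triggered by IL-1 beta plus TNF-alpha plus IFN-gamma mixture; protective hits raise ATP signal compared with cytokine alone wells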
[10] = target: Heat shock protein HSP 90-alpha (Homo sapiens, UniProt P07900); assay: Luminescence-based dose response biochemical high throughput screening assay for inhibitors of the Heat Shock Protein 90 (HSP90). [Related pubchem assays: 1831 (Summary AID.), 1846 (Confirmation screen.), 1789 (Primary screen.)]
Protein skinhead-1 = target: T1, Protein skinhead-1 (Caenorhabditis elegans, UniProt P34707); type: functional
T1 sequence (P34707 whole entry): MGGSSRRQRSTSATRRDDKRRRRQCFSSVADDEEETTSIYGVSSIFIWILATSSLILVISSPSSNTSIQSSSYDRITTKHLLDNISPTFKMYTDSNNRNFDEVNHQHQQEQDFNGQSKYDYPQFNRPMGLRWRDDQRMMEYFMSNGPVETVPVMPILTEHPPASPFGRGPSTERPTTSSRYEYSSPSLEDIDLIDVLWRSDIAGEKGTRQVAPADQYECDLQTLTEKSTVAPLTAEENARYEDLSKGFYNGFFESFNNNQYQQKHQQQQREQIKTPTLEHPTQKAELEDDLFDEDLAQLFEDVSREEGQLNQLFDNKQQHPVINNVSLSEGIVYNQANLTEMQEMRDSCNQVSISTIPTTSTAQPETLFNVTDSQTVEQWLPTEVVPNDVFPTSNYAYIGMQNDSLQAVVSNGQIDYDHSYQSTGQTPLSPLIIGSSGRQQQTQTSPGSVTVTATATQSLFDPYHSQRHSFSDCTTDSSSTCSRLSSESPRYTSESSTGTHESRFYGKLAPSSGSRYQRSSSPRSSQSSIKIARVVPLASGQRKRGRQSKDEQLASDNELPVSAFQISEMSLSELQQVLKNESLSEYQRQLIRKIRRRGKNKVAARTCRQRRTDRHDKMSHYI

[11] = target: Glucose-6-phosphate 1-dehydrogenase (Homo sapiens, UniProt P11413); assay: inhibition of Homo sapiens G6PD, dose series – biochemical, fluorescence, selectivity assay for P. falciparum G6PD inhibitor project, dose response (AID 504792); type: functional
Chain of Glucose-6-phosphate 1-dehydrogenase (P11413 whole entry): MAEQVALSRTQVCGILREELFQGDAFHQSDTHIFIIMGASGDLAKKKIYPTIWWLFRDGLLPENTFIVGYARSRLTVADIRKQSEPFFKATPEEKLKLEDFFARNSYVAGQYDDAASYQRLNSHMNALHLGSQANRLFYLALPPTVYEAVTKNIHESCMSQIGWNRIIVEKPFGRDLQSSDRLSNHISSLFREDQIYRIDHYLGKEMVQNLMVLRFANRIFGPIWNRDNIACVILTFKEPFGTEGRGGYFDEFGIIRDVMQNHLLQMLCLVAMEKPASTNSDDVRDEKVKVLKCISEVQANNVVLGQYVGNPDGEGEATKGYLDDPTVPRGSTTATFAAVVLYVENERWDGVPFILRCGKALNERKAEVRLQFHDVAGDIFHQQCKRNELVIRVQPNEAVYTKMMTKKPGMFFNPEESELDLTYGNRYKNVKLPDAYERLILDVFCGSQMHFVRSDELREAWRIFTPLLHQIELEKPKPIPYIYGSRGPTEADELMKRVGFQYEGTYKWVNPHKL

[12] = target: Mitogen-activated protein kinase 10 (Homo sapiens, UniProt P53779); assay: Dose response biochemical screening assay for inhibitors of c-Jun N-Terminal Kinase 3 (JNK3). [Related pubchem assays: 746 ]
Chain of Mitogen-activated protein kinase 10 (P53779 whole entry): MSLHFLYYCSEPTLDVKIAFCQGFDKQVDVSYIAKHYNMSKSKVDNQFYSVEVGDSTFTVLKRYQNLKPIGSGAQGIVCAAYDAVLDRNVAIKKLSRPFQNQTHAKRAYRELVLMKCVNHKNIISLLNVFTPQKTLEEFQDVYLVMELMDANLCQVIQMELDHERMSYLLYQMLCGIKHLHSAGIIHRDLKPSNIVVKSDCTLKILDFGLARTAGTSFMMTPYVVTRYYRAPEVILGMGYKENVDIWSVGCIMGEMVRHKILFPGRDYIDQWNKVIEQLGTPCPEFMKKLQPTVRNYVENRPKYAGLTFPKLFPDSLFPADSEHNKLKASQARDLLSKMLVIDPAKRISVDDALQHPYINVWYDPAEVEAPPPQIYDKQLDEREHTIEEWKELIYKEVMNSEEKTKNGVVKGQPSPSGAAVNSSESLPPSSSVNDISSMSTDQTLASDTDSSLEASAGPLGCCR

HEK293 [13] = assay: cells; settings: Homo sapiens
HEK293 [14] = assay: cells; settings: Homo sapiens; remark: listed apart in the source
[15] = target: Transitional endoplasmic reticulum ATPase (Homo sapiens, UniProt P55072, C522A); assay: Luminescence counterscreen assay for p97 inhibitors: dose response biochemical high throughput screening assay to identify inhibitors of the C522A mutant p97 ATPase: synthesized compounds. [Related pubchem assays: 1481, 1517, 1551 ]
Chain of Transitional endoplasmic reticulum ATPase (Homo sapiens, UniProt P55072, C522A) (P55072 2-806 C522A limits assumed): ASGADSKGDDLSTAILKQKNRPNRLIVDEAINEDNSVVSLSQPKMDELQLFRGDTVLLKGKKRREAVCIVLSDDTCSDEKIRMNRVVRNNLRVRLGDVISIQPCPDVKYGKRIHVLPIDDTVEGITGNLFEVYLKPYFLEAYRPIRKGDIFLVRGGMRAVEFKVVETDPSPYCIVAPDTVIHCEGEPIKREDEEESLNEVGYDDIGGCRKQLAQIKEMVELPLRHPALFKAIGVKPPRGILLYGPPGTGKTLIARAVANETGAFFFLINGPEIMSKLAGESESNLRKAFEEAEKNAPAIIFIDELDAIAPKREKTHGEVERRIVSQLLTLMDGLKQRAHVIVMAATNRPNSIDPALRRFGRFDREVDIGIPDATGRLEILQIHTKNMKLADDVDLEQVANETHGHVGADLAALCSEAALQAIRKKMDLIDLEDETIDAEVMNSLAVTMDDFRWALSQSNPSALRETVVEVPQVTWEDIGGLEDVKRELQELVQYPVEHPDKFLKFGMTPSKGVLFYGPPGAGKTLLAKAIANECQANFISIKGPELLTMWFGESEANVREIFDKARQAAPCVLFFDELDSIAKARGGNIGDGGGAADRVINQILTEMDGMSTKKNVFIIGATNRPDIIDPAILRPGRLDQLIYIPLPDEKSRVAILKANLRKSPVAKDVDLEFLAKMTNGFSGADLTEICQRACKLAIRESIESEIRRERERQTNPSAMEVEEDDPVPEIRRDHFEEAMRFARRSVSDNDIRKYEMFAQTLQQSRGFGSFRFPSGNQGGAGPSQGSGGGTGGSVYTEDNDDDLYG

[16] = target: Transitional endoplasmic reticulum ATPase (Homo sapiens, UniProt P55072); assay: Luminescence dose response biochemical high throughput screening assay for inhibitors of the p97 ATPase: synthesized compounds. [Related pubchem assays: 1481, 1517 ]
Chain of Transitional endoplasmic reticulum ATPase (Homo sapiens, UniProt P55072) (P55072 whole entry): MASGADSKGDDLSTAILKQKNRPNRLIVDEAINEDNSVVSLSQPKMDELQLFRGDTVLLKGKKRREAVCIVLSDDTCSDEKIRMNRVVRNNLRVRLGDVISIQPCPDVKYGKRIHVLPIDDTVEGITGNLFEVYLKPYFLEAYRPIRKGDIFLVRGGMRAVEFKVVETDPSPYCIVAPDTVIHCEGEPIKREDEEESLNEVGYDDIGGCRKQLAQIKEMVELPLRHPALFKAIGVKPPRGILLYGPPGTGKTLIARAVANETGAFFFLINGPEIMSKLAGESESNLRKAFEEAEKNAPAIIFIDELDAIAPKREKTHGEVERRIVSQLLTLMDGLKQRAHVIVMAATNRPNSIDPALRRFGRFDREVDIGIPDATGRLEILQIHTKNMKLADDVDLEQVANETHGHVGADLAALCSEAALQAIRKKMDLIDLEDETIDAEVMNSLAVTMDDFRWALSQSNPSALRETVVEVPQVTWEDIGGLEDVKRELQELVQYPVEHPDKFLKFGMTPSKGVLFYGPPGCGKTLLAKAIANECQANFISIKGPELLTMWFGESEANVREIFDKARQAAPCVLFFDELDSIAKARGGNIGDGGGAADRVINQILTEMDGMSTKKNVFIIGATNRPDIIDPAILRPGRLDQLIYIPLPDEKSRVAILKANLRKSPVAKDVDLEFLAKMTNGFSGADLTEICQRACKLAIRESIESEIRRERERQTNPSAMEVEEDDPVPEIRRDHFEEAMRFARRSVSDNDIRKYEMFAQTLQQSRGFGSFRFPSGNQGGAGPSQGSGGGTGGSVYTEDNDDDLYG

[17] = target: Protein-tyrosine kinase 2-beta (Homo sapiens, UniProt Q14289);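 note: potency of inhibitors of PYK2 kinase phosphorylation of poly-GT substrate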
Chain of Protein-tyrosine kinase 2-beta (Q14289 whole entry): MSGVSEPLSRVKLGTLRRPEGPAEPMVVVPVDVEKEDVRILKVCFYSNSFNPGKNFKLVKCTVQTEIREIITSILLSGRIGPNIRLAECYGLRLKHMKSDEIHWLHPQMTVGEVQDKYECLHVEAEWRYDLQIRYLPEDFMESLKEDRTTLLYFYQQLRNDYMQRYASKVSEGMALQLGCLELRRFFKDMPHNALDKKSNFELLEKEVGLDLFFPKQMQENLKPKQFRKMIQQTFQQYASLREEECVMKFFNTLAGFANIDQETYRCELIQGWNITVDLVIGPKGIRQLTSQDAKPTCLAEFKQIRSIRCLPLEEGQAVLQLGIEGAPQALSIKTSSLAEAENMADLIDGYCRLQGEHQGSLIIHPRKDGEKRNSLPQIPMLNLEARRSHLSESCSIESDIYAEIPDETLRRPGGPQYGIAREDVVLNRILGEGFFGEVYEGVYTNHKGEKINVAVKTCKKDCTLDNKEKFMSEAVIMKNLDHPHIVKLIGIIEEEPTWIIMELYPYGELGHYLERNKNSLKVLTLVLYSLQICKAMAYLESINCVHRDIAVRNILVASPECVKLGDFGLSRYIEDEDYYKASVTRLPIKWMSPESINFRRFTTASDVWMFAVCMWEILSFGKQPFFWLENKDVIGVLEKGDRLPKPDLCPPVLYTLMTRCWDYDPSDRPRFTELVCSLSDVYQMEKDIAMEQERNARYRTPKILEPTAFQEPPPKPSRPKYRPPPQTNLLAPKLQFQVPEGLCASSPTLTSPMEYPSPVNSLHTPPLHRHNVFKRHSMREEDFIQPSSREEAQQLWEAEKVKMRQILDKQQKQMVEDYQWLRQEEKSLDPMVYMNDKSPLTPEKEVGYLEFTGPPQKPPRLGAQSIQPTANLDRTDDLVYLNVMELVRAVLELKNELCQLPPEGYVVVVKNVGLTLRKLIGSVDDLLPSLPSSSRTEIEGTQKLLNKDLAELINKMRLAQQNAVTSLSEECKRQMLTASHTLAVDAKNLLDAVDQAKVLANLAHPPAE

NADPH oxidase 1 = NADPH oxidase 1 (Homo sapiens, UniProt Q9Y5S8); assay: Late-stage luminescence-based cell-based dose response assay to identify inhibitors of NADPH oxidase 1 (NOX1): Synthesized analogs 2.; type: functional
Chain of NADPH oxidase 1 (Q9Y5S8 whole entry): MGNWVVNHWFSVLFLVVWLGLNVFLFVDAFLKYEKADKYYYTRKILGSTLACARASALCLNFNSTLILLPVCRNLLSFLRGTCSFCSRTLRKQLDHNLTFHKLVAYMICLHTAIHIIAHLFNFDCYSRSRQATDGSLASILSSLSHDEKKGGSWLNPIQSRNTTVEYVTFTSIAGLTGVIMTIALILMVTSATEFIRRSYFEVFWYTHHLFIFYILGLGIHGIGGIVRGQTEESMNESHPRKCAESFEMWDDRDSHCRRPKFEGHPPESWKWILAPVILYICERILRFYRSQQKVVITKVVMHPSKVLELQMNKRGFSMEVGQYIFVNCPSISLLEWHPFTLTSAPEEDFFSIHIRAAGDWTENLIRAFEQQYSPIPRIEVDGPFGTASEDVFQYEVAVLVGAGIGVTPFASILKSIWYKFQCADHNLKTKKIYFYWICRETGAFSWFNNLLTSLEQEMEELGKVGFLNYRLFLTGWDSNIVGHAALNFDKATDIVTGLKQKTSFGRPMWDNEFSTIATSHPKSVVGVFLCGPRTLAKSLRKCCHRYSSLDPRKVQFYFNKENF

[18] = target: Aryl hydrocarbon receptor (Homo sapiens, UniProt P35869); assay: Luminescence-based cell-based high throughput dose response assay for activators of the Aryl Hydrocarbon Receptor (AHR). [Related pubchem assays: 2796 (Primary screen (AHR activators in singlicate)), 2845 (Confirmation screen (AHR activators in triplicate)), 434939 (Counterscreen (PXR activators in triplicate)), 2804 (Summary (AHR activators))]; type: ADME
Chain of Aryl hydrocarbon receptor (P35869 whole entry): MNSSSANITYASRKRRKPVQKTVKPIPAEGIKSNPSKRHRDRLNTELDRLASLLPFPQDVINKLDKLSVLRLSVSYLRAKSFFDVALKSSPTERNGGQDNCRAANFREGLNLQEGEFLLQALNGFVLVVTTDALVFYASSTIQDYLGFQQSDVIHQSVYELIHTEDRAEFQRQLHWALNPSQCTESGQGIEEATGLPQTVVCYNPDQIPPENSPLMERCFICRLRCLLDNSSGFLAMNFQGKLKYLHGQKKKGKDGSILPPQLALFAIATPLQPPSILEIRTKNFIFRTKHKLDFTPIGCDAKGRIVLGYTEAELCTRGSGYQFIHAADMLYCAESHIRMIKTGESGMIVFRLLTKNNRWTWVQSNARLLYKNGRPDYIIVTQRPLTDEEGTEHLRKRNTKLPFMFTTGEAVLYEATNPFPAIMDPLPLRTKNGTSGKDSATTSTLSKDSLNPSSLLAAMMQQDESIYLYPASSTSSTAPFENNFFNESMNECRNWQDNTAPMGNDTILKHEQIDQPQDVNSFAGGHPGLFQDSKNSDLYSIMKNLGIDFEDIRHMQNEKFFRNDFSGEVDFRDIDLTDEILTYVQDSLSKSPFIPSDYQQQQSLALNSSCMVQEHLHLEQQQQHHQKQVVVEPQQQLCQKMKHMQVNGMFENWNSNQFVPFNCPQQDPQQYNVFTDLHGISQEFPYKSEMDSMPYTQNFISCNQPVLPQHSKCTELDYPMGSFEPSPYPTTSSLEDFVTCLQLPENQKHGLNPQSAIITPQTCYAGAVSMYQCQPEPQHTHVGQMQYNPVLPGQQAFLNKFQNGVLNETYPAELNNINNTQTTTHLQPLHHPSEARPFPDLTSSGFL

Genome polyprotein = Genome polyprotein (Hepatitis C virus, UniProt Q2Q167); assay: disruption of hepatitis C core self-association – biochemical, TR-FRET, dose response (AID 2159); parameters: species or system Hepacivirus hominis;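 note: blocks dimerization of HCV core protein measured by TR-FRET between tagged core106 pairs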

N#C/C(=C\c1cccs1)c1nc2ccccc2[nH]1
IC50 (Galanin receptor type 2): > 42 µM (not active)
EC50 [1]: 26.6 µM (active)
EC50 (H4): 15.8 µM (active)
EC50 [2]: 2.67 µM (active)

N#C/C(=C\c1ccc([N+](=O)[O-])o1)c1nc2ccccc2[nH]1
EC50 [3]: 1.01 µM (active)
EC50 [4]: 0.985 µM (active)
EC50 [5]: 5.9 µM (inconclusive)
EC50 (BJ [6]): > 150 µM (inconclusive)
EC50 (BJ [7]): 2.27 µM (inconclusive)
EC50 (BJ [8]): > 150 µM (inconclusive)
EC50 [9]: 3.64 µM (active)
AC50 (INS1): 3.02 µM (active)

[O-]/[N+](=C\c1ccco1)c1ccc(Cl)cc1
IC50 [10]: 4.31 µM (active)
IC50 (Protein skinhead-1): > 100 µM (inactive)
IC50 [11]: 27.6 µM (inactive)

COc1cc(C2NC(=O)NC(C)=C2C(=O)OCc2ccccc2)ccc1O (centres undefined)
IC50 [12]: > 93.1 µM (not active)
EC50 (HEK293 [13]): > 59.6 µM (inactive)
EC50 (HEK293 [14]): > 59.6 µM (inactive)

N#CC(C#N)=Cc1c2ccccc2cc2ccccc12
IC50 [15]: > 50 µM (not active)
IC50 [16]: > 50 µM (not active)

CCOC(=O)C1=C(c2ccccc2)OC(N)=C(C#N)C1C1CCCCC1 (centres undefined)
IC50 [17]: > 69.5 µM (not active)

CN1c2ccccc2Sc2cc(N=[N+]=[N-])ccc21
IC50 (NADPH oxidase 1): 0.73 µM (active)

CCCCc1cc2c(c(NC(C)=O)n1)c(=O)oc1ccccc12
EC50 [18]: 3.25 µM (active)

COc1ccc(S(=O)(=O)N2CCOCC2)cc1NC(=O)c1cccc(-n2cccc2)c1
IC50 (Genome polyprotein): > 49.8 µM (not active)
